Laboratory results: patent US7138361B2, “Herbicidal heterocycles” (E. I. du Pont de Nemours and Company, priority 2000, dated 2006)

Assays:
Assay type in all cases: in vivo
[1] = tested on: Surinam grass (Brachiaria decumbens); assay: Test B postemergence; details: 13 to 15 days
Summary of the method: (§1)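 Seeds were planted and sprayed preemergence with test chemical in a non-phytotoxic solvent mixture containing surfactant; postemergence plants (2 to 18 cm, 1- to 4-leaf stage) received the same formulation. Greenhouse hold 13 to 15 days, then visual rating versus untreated controls on a 0–100 scale (0 no effect, 100 complete control).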

[2] = tested on: barnyardgrass (Echinochloa crus-galli); assay: Test B postemergence; details: 13 to 15 days
Summary of the method: as §1

[3] = tested on: blackgrass (Alopecurus myosuroides); assay: Test B postemergence; details: 13 to 15 days
Summary of the method: as §1

[4] = tested on: cocklebur (Xanthium strumarium); assay: Test B postemergence; details: 13 to 15 days
Summary of the method: as §1

corn (Zea mays) [5] = assay: Test B postemergence; details: 13 to 15 days
Summary of the method: as §1

[6] = tested on: crabgrass (Digitaria sanguinalis); assay: Test B postemergence; details: 13 to 15 days
Summary of the method: as §1

[7] = tested on: giant foxtail (Setaria faberii); assay: Test B postemergence; details: 13 to 15 days
Summary of the method: as §1

[8] = tested on: lambsquarters (Chenopodium album); assay: Test B postemergence; details: 13 to 15 days
Summary of the method: as §1

[9] = tested on: morning glory (Ipomoea hederacea); assay: Test B postemergence; details: 13 to 15 days
Summary of the method: as §1

[10] = tested on: velvetleaf (Abutilon theophrasti); assay: Test B postemergence; details: 13 to 15 days
Summary of the method: as §1

[11] = tested on: wheat (Triticum aestivum); assay: Test B postemergence; details: 13 to 15 days
Summary of the method: as §1

wild oat (Avena fatua) = assay: Test B postemergence; details: 13 to 15 days
Summary of the method: as §1

[12] = tested on: Surinam grass (Brachiaria decumbens); assay: Test B preemergence; details: scale 0 to 100, 0 no effect, 100 complete control
Summary of the method: as §1

[13] = tested on: barnyardgrass (Echinochloa crus-galli); assay: Test B preemergence; details: scale 0 to 100, 0 no effect, 100 complete control
Summary of the method: as §1

[14] = tested on: cocklebur (Xanthium strumarium); assay: Test B preemergence; details: scale 0 to 100, 0 no effect, 100 complete control
Summary of the method: as §1

corn (Zea mays) [15] = assay: Test B preemergence; details: scale 0 to 100, 0 no effect, 100 complete control
Summary of the method: as §1

[16] = tested on: crabgrass (Digitaria sanguinalis); assay: Test B preemergence; details: scale 0 to 100, 0 no effect, 100 complete control
Summary of the method: as §1

[17] = tested on: giant foxtail (Setaria faberii); assay: Test B preemergence; details: scale 0 to 100, 0 no effect, 100 complete control
Summary of the method: as §1

[18] = tested on: lambsquarters (Chenopodium album); assay: Test B preemergence; details: scale 0 to 100, 0 no effect, 100 complete control
Summary of the method: as §1

[19] = tested on: morning glory (Ipomoea hederacea); assay: Test B preemergence; details: scale 0 to 100, 0 no effect, 100 complete control
Summary of the method: as §1

[20] = tested on: pigweed (Amaranthus retroflexus); assay: Test B preemergence; details: scale 0 to 100, 0 no effect, 100 complete control
Summary of the method: as §1

rice (Oryza saliva) = assay: Test B preemergence; details: scale 0 to 100, 0 no effect, 100 complete control
Summary of the method: as §1

[21] = tested on: velvetleaf (Abutilon theophrasti); assay: Test B preemergence; details: scale 0 to 100, 0 no effect, 100 complete control
Summary of the method: as §1

[22] = Rate 125 g/ha, scale 0 (no effect) to 100 (complete control)
[23] = Rate 500 g/ha, scale 0 to 100, 0 is no effect, 100 is complete control

For `CCC(C)c1nn(C2CCN(c3cccc(C(F)(F)F)c3)C2=O)cc1Cl` (centres unmarked) [Compound 13], the “Plant response rating, Surinam grass” value [1, 22] was 0, the “Plant response rating, Surinam grass” value [1, 23] was 0 and the “Plant response rating, Barnyardgrass” value [2, 22] was 0. The “Plant response rating, Barnyardgrass” value [2, 23] was 0, the “Plant response rating, Blackgrass” value [3, 22] was 0 and the “Plant response rating, Blackgrass” value [3, 23] was 0. The “Plant response rating, Cocklebur” value [4, 22] was 0, the “Plant response rating, Cocklebur” value [4, 23] was 0 and the “Plant response rating, Corn” value (corn (Zea mays) [5]; [22]) was 0. The “Plant response rating, Corn” value (corn (Zea mays) [5]; [23]) was 0, the “Plant response rating, Crabgrass” value [6, 22] was 60 and the “Plant response rating, Crabgrass” value [6, 23] was 60. For the same compound, the “Plant response rating, Foxtail, Giant” value [7, 22] was 0, the “Plant response rating, Foxtail, Giant” value [7, 23] was 0 and the “Plant response rating, Lambsquarters” value [8, 22] was 0. The “Plant response rating, Lambsquarters” value [8, 23] was 0, the “Plant response rating, Morningglory” value [9, 22] was 0 and the “Plant response rating, Morningglory” value [9, 23] was 70. For the same compound, the “Plant response rating, Velvetleaf” value [10, 22] was 0, the “Plant response rating, Velvetleaf” value [10, 23] was 0 and the “Plant response rating, Wheat” value [11, 22] was 0. The “Plant response rating, Wheat” value [11, 23] was 0, the “Plant response rating, Wild Oat” value (wild oat (Avena fatua); [22]) was 20 and the “Plant response rating, Wild Oat” value (wild oat (Avena fatua); [23]) was 20. The “Plant response rating, Surinam grass” value ([12]; Preemergence, Rate 500 g/ha) was 0, the “Plant response rating, Surinam grass” value ([12]; preemergence, Rate 125 g/ha) was 0 and the “Plant response rating, Barnyardgrass” value ([13]; Preemergence, Rate 500 g/ha) was 0. The “Plant response rating, Barnyardgrass” value ([13]; preemergence, Rate 125 g/ha) was 0, the “Plant response rating, Cocklebur” value ([14]; Preemergence, Rate 500 g/ha) was 0 and the “Plant response rating, Cocklebur” value ([14]; preemergence, Rate 125 g/ha) was 0. The “Plant response rating, Corn” value (corn (Zea mays) [15]; Preemergence, Rate 500 g/ha) was 0, the “Plant response rating, Corn” value (corn (Zea mays) [15]; preemergence, Rate 125 g/ha) was 0 and the “Plant response rating, Crabgrass” value ([16]; Preemergence, Rate 500 g/ha) was 0. The “Plant response rating, Crabgrass” value ([16]; preemergence, Rate 125 g/ha) was 0, the “Plant response rating, Foxtail, Giant” value ([17]; Preemergence, Rate 500 g/ha) was 0 and the “Plant response rating, Foxtail, Giant” value ([17]; preemergence, Rate 125 g/ha) was 0. The “Plant response rating, Lambsquarters” value ([18]; Preemergence, Rate 500 g/ha) was 0, the “Plant response rating, Lambsquarters” value ([18]; preemergence, Rate 125 g/ha) was 0 and the “Plant response rating, Morningglory” value ([19]; Preemergence, Rate 500 g/ha) was 0. For the same compound, the “Plant response rating, Morningglory” value ([19]; preemergence, Rate 125 g/ha) was 0, the “Plant response rating, Pigweed” value ([20]; Preemergence, Rate 500 g/ha) was 0 and the “Plant response rating, Pigweed” value ([20]; preemergence, Rate 125 g/ha) was 0. The “Plant response rating, Rice” value (rice (Oryza saliva); Preemergence, Rate 500 g/ha) was 0, the “Plant response rating, Rice” value (rice (Oryza saliva); preemergence, Rate 125 g/ha) was 0 and the “Plant response rating, Velvetleaf” value ([21]; Preemergence, Rate 500 g/ha) was 0. The “Plant response rating, Velvetleaf” value ([21]; preemergence, Rate 125 g/ha) was 0.
For `Cc1ccn(C2CCN(c3cccc(C(F)(F)F)c3)C2=O)n1` (centres unmarked) [Compound 16], the “Plant response rating, Surinam grass” value [1, 22] was 0, the “Plant response rating, Surinam grass” value [1, 23] was 0 and the “Plant response rating, Barnyardgrass” value [2, 22] was 0. The “Plant response rating, Barnyardgrass” value [2, 23] was 0, the “Plant response rating, Blackgrass” value [3, 22] was 0 and the “Plant response rating, Blackgrass” value [3, 23] was 0. For the same compound, the “Plant response rating, Cocklebur” value [4, 22] was 0, the “Plant response rating, Cocklebur” value [4, 23] was 0 and the “Plant response rating, Corn” value (corn (Zea mays) [5]; [22]) was 0. For the same compound, the “Plant response rating, Corn” value (corn (Zea mays) [5]; [23]) was 0, the “Plant response rating, Crabgrass” value [6, 22] was 0 and the “Plant response rating, Crabgrass” value [6, 23] was 60. For the same compound, the “Plant response rating, Foxtail, Giant” value [7, 22] was 0, the “Plant response rating, Foxtail, Giant” value [7, 23] was 30 and the “Plant response rating, Lambsquarters” value [8, 22] was 0. For the same compound, the “Plant response rating, Lambsquarters” value [8, 23] was 0, the “Plant response rating, Morningglory” value [9, 22] was 0 and the “Plant response rating, Morningglory” value [9, 23] was 0. For the same compound, the “Plant response rating, Velvetleaf” value [10, 22] was 0, the “Plant response rating, Velvetleaf” value [10, 23] was 0 and the “Plant response rating, Wheat” value [11, 22] was 0. For the same compound, the “Plant response rating, Wheat” value [11, 23] was 0, the “Plant response rating, Wild Oat” value (wild oat (Avena fatua); [22]) was 0 and the “Plant response rating, Wild Oat” value (wild oat (Avena fatua); [23]) was 50. The “Plant response rating, Surinam grass” value ([12]; Preemergence, Rate 500 g/ha) was 0, the “Plant response rating, Surinam grass” value ([12]; preemergence, Rate 125 g/ha) was 0 and the “Plant response rating, Barnyardgrass” value ([13]; Preemergence, Rate 500 g/ha) was 0. For the same compound, the “Plant response rating, Barnyardgrass” value ([13]; preemergence, Rate 125 g/ha) was 0, the “Plant response rating, Cocklebur” value ([14]; Preemergence, Rate 500 g/ha) was 0 and the “Plant response rating, Cocklebur” value ([14]; preemergence, Rate 125 g/ha) was 0. The “Plant response rating, Corn” value (corn (Zea mays) [15]; Preemergence, Rate 500 g/ha) was 0, the “Plant response rating, Corn” value (corn (Zea mays) [15]; preemergence, Rate 125 g/ha) was 0 and the “Plant response rating, Crabgrass” value ([16]; Preemergence, Rate 500 g/ha) was 0. The “Plant response rating, Crabgrass” value ([16]; preemergence, Rate 125 g/ha) was 0, the “Plant response rating, Foxtail, Giant” value ([17]; Preemergence, Rate 500 g/ha) was 0 and the “Plant response rating, Foxtail, Giant” value ([17]; preemergence, Rate 125 g/ha) was 0. For the same compound, the “Plant response rating, Lambsquarters” value ([18]; Preemergence, Rate 500 g/ha) was 0, the “Plant response rating, Lambsquarters” value ([18]; preemergence, Rate 125 g/ha) was 0 and the “Plant response rating, Morningglory” value ([19]; Preemergence, Rate 500 g/ha) was 0. The “Plant response rating, Morningglory” value ([19]; preemergence, Rate 125 g/ha) was 0, the “Plant response rating, Pigweed” value ([20]; Preemergence, Rate 500 g/ha) was 0 and the “Plant response rating, Pigweed” value ([20]; preemergence, Rate 125 g/ha) was 0. For the same compound, the “Plant response rating, Rice” value (rice (Oryza saliva); Preemergence, Rate 500 g/ha) was 0, the “Plant response rating, Rice” value (rice (Oryza saliva); preemergence, Rate 125 g/ha) was 0 and the “Plant response rating, Velvetleaf” value ([21]; Preemergence, Rate 500 g/ha) was 20. The “Plant response rating, Velvetleaf” value ([21]; preemergence, Rate 125 g/ha) was 0.
